Counter-ions that a name gives are not always drawn. Like-named read-outs stand apart in the source and are kept apart here.
Key:
[1] = target: T1, lipoxygenase derived from rat basophilic leukemia (RBL-1) cells (Rattus norvegicus, UniProt P12527); test: % inhibition of formation of lipoxygenase products 5,12-di-HETE (L1) and 5-HETE (L2) in RBL-1 microsomal homogenate; assay type: biochemical; set-up: inhibition: dose or concentration left out as unconfirmed
T1 construct: Single cell suspensions of RBL-1 cells are homogenized to obtain the microsomal fraction containing lipoxygenase and cyclooxygenase; endogenous in cells; host or cells: RBL-1 (rat basophilic leukemia) cells, homogenate/microsomal fraction
T1 sequence (P12527 1-673): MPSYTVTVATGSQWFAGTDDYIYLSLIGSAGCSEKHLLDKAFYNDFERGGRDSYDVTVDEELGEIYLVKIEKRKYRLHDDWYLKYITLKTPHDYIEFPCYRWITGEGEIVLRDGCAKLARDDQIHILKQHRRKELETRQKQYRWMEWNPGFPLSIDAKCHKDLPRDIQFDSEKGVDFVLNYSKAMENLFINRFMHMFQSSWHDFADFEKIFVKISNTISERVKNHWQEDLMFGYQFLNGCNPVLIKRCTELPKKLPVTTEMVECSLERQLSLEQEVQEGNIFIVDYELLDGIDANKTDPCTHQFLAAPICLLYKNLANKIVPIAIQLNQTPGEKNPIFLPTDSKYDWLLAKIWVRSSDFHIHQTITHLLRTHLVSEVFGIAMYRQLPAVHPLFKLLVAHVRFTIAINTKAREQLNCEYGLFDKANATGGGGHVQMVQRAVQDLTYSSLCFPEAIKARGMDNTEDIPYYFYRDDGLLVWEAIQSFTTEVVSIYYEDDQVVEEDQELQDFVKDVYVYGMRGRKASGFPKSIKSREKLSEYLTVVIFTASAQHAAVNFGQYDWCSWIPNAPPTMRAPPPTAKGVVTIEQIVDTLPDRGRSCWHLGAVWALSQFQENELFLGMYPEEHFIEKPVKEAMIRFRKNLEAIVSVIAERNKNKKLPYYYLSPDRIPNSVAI
Description: (§1) The primary screening test used is a determination of the inhibition of lipoxygenase and cyclooxygenase derived from rat basophilic leukemia (RBL-1) cells. The test was carried out according to the following procedure:
(§2) Single cell suspensions of RBL-1 cells are homogenized to obtain the microsomal fraction containing lipoxygenase and cyclooxygenase. Test compounds are added to the enzyme-containing homogenate for a 5 min. preincubation period at 37° C. prior to the addition of ^14 C-arachidonic acid substrate. Following incubation at 37° C. for 15 min., the reaction is stopped by the addition of 2M formic acid and the enzyme-substrate products are extracted into chloroform. An aliquot of the extract is evaporated to dryness, reconstituted in ether to 1/10 original volume, spotted on thin layer chromatography plates and chromatographed. The peak areas of radioactivity representing the products are located by scanning the plates. The quantity of products formed is estimated by measuring the height of the radioactivity peaks observed on the chromatographic scans. Alternatively, the areas of radioactivity are scraped from the plate and the ^14 C quantitated by scintillation counting. The percent inhibition in the formation of the cyclooxygenase product prostaglandin D2, designated as C1, and lipoxygenase products 5,12-di-HETE and 5-HETE, designated L1 and L2 respectively, are shown. Compounds with >50% inhibition of L1 and L2 at a screening concentration of 1 μM are considered active.

[2] = target: T2, cyclooxygenase derived from rat basophilic leukemia (RBL-1) cells (Rattus norvegicus, UniProt Q63921); test: % inhibition of formation of cyclooxygenase product prostaglandin D2 (C1) in RBL-1 microsomal homogenate; assay type: biochemical; set-up: inhibition: dose or concentration left out as unconfirmed; conditions: read-out: % Inhibition in vitro, C1 (prostaglandin D2)
T2 construct: Single cell suspensions of RBL-1 cells are homogenized to obtain the microsomal fraction containing lipoxygenase and cyclooxygenase; endogenous in cells; host or cells: RBL-1 (rat basophilic leukemia) cells, homogenate/microsomal fraction
T2 sequence (Q63921 27-602): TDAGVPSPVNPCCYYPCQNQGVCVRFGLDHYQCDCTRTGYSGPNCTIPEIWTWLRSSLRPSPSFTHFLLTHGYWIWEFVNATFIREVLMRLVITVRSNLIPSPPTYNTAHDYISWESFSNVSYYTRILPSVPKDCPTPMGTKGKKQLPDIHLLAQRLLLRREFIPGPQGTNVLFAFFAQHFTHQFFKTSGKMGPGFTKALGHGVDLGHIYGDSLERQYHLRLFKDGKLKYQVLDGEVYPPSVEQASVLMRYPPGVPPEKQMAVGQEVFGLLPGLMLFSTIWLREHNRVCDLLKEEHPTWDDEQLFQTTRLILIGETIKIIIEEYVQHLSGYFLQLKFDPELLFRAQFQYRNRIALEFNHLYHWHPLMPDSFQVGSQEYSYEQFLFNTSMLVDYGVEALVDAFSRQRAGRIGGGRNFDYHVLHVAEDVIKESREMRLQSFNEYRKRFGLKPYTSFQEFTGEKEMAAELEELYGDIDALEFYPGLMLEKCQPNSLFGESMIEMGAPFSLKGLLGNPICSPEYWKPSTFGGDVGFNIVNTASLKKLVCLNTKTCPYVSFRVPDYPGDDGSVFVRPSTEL
Description: as §1, §2

[3] = system: SRS-A component of immunologically induced bronchoconstriction; test: effect on the SRS-A component of immunologically induced bronchoconstriction in guinea pigs; assay type: in vivo; conditions: guinea pig
Description: The test was carried out according to the following procedure: Outbred female guinea pigs were sensitized to egg albumin by a 1 mL ip injection of a 1 mg/mL egg albumin alum suspension. Twelve to sixteen days after immunization, the animals were used for the test. They were anesthetized with urethane (1.5 gm/kg ip) and surgically prepared with a jugular vein canula connected to a three-way stopcock for administration of drugs and antigen challenge. The trachea was cannulated and the animal artifically respired. The intratracheal pressure was continuously recorded and expressed in mm Hg. Naproxen sodium (10 mg/kg) and pyrilamine maleate (0.3 mg/kg) in phosphate buffered saline, pH 7.2, were administered intravenously in a single solution seven minutes prior to antigen challenge. Propranolol (0.1 mg/kg) was also given iv three minutes prior to challenge with egg albumin (300 μg/kg iv). The animals were dosed orally with compounds in water or in a vehicle of 3% corn starch, 5% polyethylene glycol 400, and 0.34% Tween 8™ in water at one or four hours before challenge. Results were recorded as the maximum increase in intratracheal pressure following antigen challenge. Activity of the compounds was measured as percent inhibition of the mean peak intratracheal pressure in the group of dosed animals in comparison to the mean peak intratracheal pressure in the group of vehicle treated animals. The results are expressed in terms of % inhibition.

[4] = read-out: % Inhibition in vitro, L1 (5,12-di-HETE)
[5] = read-out: % Inhibition in vitro, L2 (5-HETE)
[6] = 100 mg/kg p.o., at 1 hour before challenge
[7] = 100 mg/kg p.o., at 4 hours before challenge
[8] = 0.25 h, line carries a superscript without letter (probably footnote a, 0.1 μM), read-out: % Inhibition in vitro, L1 (5,12-di-HETE)
[9] = 0.25 h, line carries a superscript without letter (probably footnote a, 0.1 μM), read-out: % Inhibition in vitro, L2 (5-HETE)
[10] = 0.25 h, line carries a superscript without letter (probably footnote a, 0.1 μM)

Compound | inhibition [1, 5] | inhibition [2] | % Inhibition in vivo (mean peak intratracheal pressure) [3, 6] | % Inhibition in vivo (mean peak intratracheal pressure) [3, 7] | inhibition at 1 µM [1, 8] | inhibition at 1 µM [1, 9] | inhibition at 1 µM [2, 10] | other results
Cl.N#CCCCCCCNc1ccc(O)cc1F [Example 11c, 7-[(2-Fluoro-4-hydroxyphenyl)amino]heptanenitrile monohydrochloride] | 93% | 22% | 7% | 30% | – | – | – | inhibition [1, 4]: 86%
N#CCCCCNc1ccc(O)cc1 [Example 1c, 5-[(4-Hydroxyphenyl)amino]pentanenitrile] | – | – | – | – | 100% | 100% | 0% | –
N#CCCCCCCNc1ccc(O)c(CO)c1 [Example 10c, 7-[[4-Hydroxy-3-(hydroxymethyl)phenyl]amino]heptanenitrile monohydrochloride] | – | – | – | – | 100% | 100% | 10% | –
N#CCCCCCCCCNc1ccc(O)cc1.O=C(O)/C=C\C(=O)O [Example 5c, 9-[(4-Hydroxyphenyl)amino]nonanenitrile (Z)-2-butenedioate] | 95% | 0% | 0% | 25% | – | – | – | inhibition [1, 4]: 82%
N#CCCCCCCCNc1ccc(O)cc1.O=C(O)/C=C\C(=O)O [Example 4c, 8-[(4-Hydroxyphenyl)amino]octanenitrile (Z)-2-butenedioate] | – | – | 17% | 76% | 100% | 100% | 0% | –
N#CCCCCCCNc1ccc(O)cc1 [Example 2d, 7-[(4-Hydroxyphenyl)amino]heptanenitrile] | – | – | 66% | 61% | – | – | – | inhibition at 1 µM [1, 4]: 92%; inhibition at 1 µM [1, 5]: 98%; inhibition at 1 µM [2]: 42%
Cc1cc(NCCCCCCC#N)ccc1O [Example 8c, 7-[(4-Hydroxy-3-methylphenyl)amino]heptanenitrile monohydrochloride] | – | – | – | – | 100% | 100% | 13% | –
CC(=O)Oc1ccc(N(C)CCCCCCC#N)cc1 [Example 6d, 7-[[4-(Acetyloxy)phenyl]methylamino]heptanenitrile] | 85% | 14% | – | – | – | – | – | inhibition [1, 4]: 91%
CN(CCCCCCC#N)c1ccc(O)cc1 [Example 6c] | – | – | 6% | – | 100% | 100% | 28% | –
Cl.N#CCCCCCCNc1ccccc1O [Example 3c, 7-[(2-Hydroxyphenyl)amino]heptanenitrile monohydrochloride] | 100% | 0% | 4% | 11% | – | – | – | –
N#CCCCCCCNc1cc(Cl)c(O)c(Cl)c1 [Example 9c, 7-[(3,5-Dichloro-4-hydroxyphenyl)amino]heptanenitrile monohydrochloride] | 95% | 9% | – | – | – | – | – | –
Cc1cc(O)ccc1NCCCCCCC#N.Cl [Example 7c, 7-[(4-Hydroxy-2-methylphenyl)amino]heptanenitrile monohydrochloride] | 65% | 0% | – | – | – | – | – | % Inhibition in vivo (mean peak intratracheal pressure) ([3]; 300 mg/kg p.o. (footnote b), at 1 hour before challenge): 66%; % Inhibition in vivo (mean peak intratracheal pressure) ([3]; 300 mg/kg p.o. (footnote b), at 4 hours before challenge): 86%

Source: patent US4835180A, “N-(ω-cyanoalkyl)aminophenols and use as inhibitors of lipoxygenase activity” (Sterling Drug Inc., priority 1986, dated 1989)
